Measured values from patent publication US20160220567A1, “COMPOSITION FOR TREATING OR PREVENTING BONE DISEASES, COMPRISING HALOFUGINONE AS ACTIVE INGREDIENT” (THE CATHOLIC UNIVERSITY OF KOREA INDUSTRY-ACADEMIC …, priority 2013, published 2016).

Assays:
[1] = system: Th17 cells; assay: mRNA expression of IL-17, CCR6, SOCS3 and Foxp3 in Th17 cells by real-time PCR; assay type: cell-based, mouse; details: FIG. 3B
Method: (§1) The real-time PCR was performed using the LightCycler 2.0 System Instrument and the reaction compounds were prepared by mixing 1 μL of each cDNA, 10 μL of premix Ex Taq as an enzyme for the initiation, and each primer pair to a final volume of 20 μL using distilled water. The reaction conditions were: reacted at 95° C. for 10 minutes, followed by a total of 50 cycles consisting of denaturation at 95° C. for 10 seconds, annealing at 60° C. for 5 seconds, and extension at 72° C. for 10 seconds. The values of cycle threshold (Ct) were analyzed and the amount of mRNA expression for each target was indicated in terms of the amount of beta-actin mRNA expression and the relative quantity. The primers used are shown below.
Splenocytes were obtained from mice, that is, the spleens removed from the mice and the spleen tissues were thinly ground using a tearing slide and the red blood cells (RBC) in the splenocytes were removed with the RBC lysis solution. Then, PBS buffer solution was added thereto, and the mixture was centrifuged, and washed to obtain splenocytes. Then, the singe cells (1 ? 10^6) isolated from the spleens were aliquoted into a 24-well plate coated with anti-CD3 antibody (1 μg/mL) were treated under the condition of capable of stimulating Th17 cells (anti-CD28 antibody (1 μg/mL), TGF-β (2 ng/ mL), IL-6 (20 ng/mL), anti-IL-4 (10 μg/mL), and anti-IFN-γ (10 μg/mL); the condition of capable of stimulating Th1 cells (anti-CD28 antibody (1 μg/mL), IL-12 (10 ng/mL), and anti-IL-4 (10 μg/mL)); or the condition of capable of stimulating Th2 cells (anti-CD28 antibody (1 μg/mL), IL-4 (10 ng/mL), and anti-IFN-γ (10 μg/mL)); and the cells were cultured for 3 days, and in particular, cultured after treating the cells with halofuginone at respective concentration and cultured. Specifically, DMSO treatment was used for the control group.
The expression of IL-17, CCR6, SOCS3, and Foxp3 in the cells under the condition of Example <2-2> was analyzed by real-time PCR as described in Example <1-6>. The primers used are shown below.

[2] = system: ERK of Th17 cells; assay: pERK expression in Th17 cells by western blotting; assay type: cell-based, mouse; details: Th17 cells stimulated with halofuginone, FIG. 3C
Method: To examine whether halofuginone activates the ERK of Th17 cells, western blotting was performed for pERK in the cells under the condition of Example <2-1>. To this end, the Th17 cells were lysed in a lysis buffer [20 mM Tris-HCl (pH 7.5), 150 mM NaCl, 1% Triton X-100, 1 mM EDTA, 1 mM EGTA, 1 mM phenylmethylsulfonyl fluoride, 10 mM β-glycerophosphate, 1 mM NaF, 1 mM Na3VO4, and 19 Protease Inhibitow Cocktail™ (Roche Molecular Biochemicals, Indianapolis, Ind., USA)]. From the lysate, an equal amount of the protein (about 20 μg) was separated by sodium dodecyl sulfate-polyacrylamide gel electrophoresis and then transferred to a nitrocellulose membrane. Then, the blots were probed with NFATc1 and phospho-Smad2/3 (all from Santa Cruz Biotechnology), Stat3, Stat5, ERK, phospho-Stat3, phospho-stat5, and phospho-ERK (all from Cell Signaling Technology), and β-actin (Sigma) antibodies, and confirmed by ECL (Amersham, Del., USA).

[3] = system: bone marrow cells differentiating into osteoclasts; assay: TRAP staining of bone marrow cells from arthritis animal model cultured with M-CSF and RANKL; assay type: in vivo, mouse; details: bone marrow cells from treated CIA mice, cultured with M-CSF and RANKL for 7 days, FIG. 4B
Method: (§2) For the construction of a mouse model with collagen-induced arthritis (hereinafter, referred to as “CIA”), a 6-week old male DBA/1J mouse was subjected to primary immunization by intradermal injection after mixing the bovine type II collagen (hereinafter, referred to as “CII”) and complete Freud's adjuvant (CFA) in an amount of 100 μL, respectively. After a week thereafter, halofuginone was injected intraperitoneally at 3 day intervals at a concentration of 100 μg/kg and 500 μg/kg, respectively (9 weeks).
(§3) Accordingly, the present inventors isolated bone marrow cells from the joint of the animal model with arthritis, cultured the cells under the stimulation of M-CSF and RANKL for 7 days, and subjected them to TRAP staining using the leukocyte acid phosphatase Kit (387-A, Sigma, St. Louis, Mo., USA) according to the manufacturer's manual.

[4] = system: Rcan3 and Sox6; assay: Expression of Rcan3 and Sox6 in joint tissue of CII-immunized DBA/1J mice by immunohistochemical staining; assay type: in vivo, mouse; details: 500 μg/kg intraperitoneally, 50 days, vs untreated group, FIG. 7
Description: Furthermore, to examine whether the halofuginone compound of the present invention can promote the differentiation and the activity of osteoblasts, the present inventors performed the following experiment for the purpose of confirming the effect of the halofuginone compound on the expression and the activity of Rcan3 and Sox6, which are factors associated with the differentiation of osteoblasts. Specifically, the DBA/1J mice were subjected to the primary immunization by intradermally injecting bovine type II collagen (hereinafter, “CII”) in an amount of 100 μL, and one week thereafter, injected intraperitoneally with halofuginone (500 μg/kg). Fifty days thereafter, the mice were sacrificed, and the expression levels of Rcan3 and Sox6 in the joint tissue of the mice were confirmed via immunohistochemical staining method. The group of mice not treated with halofuginone was used as the control group.
The immunohistochemical staining method was performed as follows. The joints of the mice group used above were collected, fixed with 10% neutral buffered formalin, the bones were decalcified with Calci-Clear Rapid bone decalcifier and embedded in paraffin, the joint tissue was prepared into 7 μm-thick slices and attached to slides. […]

[5] = system: TRAP, NFATc1, b3 integrin, OSCAR, cathepsin K, and MMP9 mRNA; assay: Real-time PCR of factors associated with osteoclast differentiation in bone marrow cells of arthritis animal model; assay type: in vivo, mouse; details: bone marrow cells of CIA mice, RANKL treatment, FIG. 4C
Method: as §2, §1, §3
The primers used are shown below.

O=C(C[C@H]1NCCC[C@@H]1O)Cn1cnc2cc(Br)c(Cl)cc2c1=O (racemic) [halofuginone]
expression of CCR6 [1]: inhibits | expression of Foxp3 [1]: increasing | expression of IL-17 [1]: inhibits | expression of SOCS [1]: increasing | expression of pERK [2]: increased | number of TRAP positive cells [3]: decreased | expression of Rcan3 [4]: significant increase | expression of Sox6 [4]: significant increase | mRNA expression level of MMP9 [5]: decreased | mRNA expression level of NFATc1 [5]: decreased | mRNA expression level of OSCAR [5]: decreased | mRNA expression level of TRAP [5]: decreased | mRNA expression level of b3 integrin [5]: decreased | mRNA expression level of cathepsin K [5]: decreased
